The test system of test [1] is Rattus norvegicus. The experiment in a line: Estrogenic activity in albino rat assessed as uterus weight at 10 ug, po administered twice daily measured after 4 days. It is filed as functional.
Test [2] concerns Rattus norvegicus. The experiment in a line: Estrogenic activity in albino rat assessed as uterus weight at 20 ug, po administered twice daily measured after 4 days. The test is classed as functional.
In test [3] the test system is Rattus norvegicus. The test can be described thus: Estrogenic activity in albino rat assessed as uterus weight at 50 ug, po administered twice daily measured after 4 days. The test is classed as functional.
The test system of test [4] is Rattus norvegicus. The experiment in a line: Estrogenic activity in albino rat assessed as vaginal openings at 10 ug, po administered twice daily measured after 4 days relative to control. The test is classed as functional, organism-based.
Test [5] relates to Rattus norvegicus. The experiment in a line: Estrogenic activity in albino rat assessed as vaginal openings at 50 ug, po administered twice daily measured after 4 days relative to control. The test is classed as functional.

Each structure is given as a SMILES string. The source made the active and inactive calls. The calls are words filed in the database; no cut-off is given here.

For `COc1ccc(-c2coc3cc(O[C@@H]4O[C@H](CO)[C@@H](O)[C@H](O)[C@H]4OC(=O)/C=C/c4ccc(O)cc4)ccc3c2=O)cc1CC=C(C)C`, the Activity turned out to be 18% with Rattus norvegicus [1], 27.79% with Rattus norvegicus [2], 33.21% in the test on Rattus norvegicus [3] and 100% with Rattus norvegicus [5]. For the same compound, the outcome in the test on Rattus norvegicus [4] was inactive.
